In ChEMBL document CHEMBL1155857, “Benzodiazepine ligands can act as allosteric modulators of the Type 1 cholecystokinin receptor” (Bioorg Med Chem Lett, 2008) one finds pKb data, which are given here for one compound.

The target of this assay is T1, Cholecystokinin receptor type A (Rattus norvegicus) (UniProt P30551).
T1 sequence (whole entry): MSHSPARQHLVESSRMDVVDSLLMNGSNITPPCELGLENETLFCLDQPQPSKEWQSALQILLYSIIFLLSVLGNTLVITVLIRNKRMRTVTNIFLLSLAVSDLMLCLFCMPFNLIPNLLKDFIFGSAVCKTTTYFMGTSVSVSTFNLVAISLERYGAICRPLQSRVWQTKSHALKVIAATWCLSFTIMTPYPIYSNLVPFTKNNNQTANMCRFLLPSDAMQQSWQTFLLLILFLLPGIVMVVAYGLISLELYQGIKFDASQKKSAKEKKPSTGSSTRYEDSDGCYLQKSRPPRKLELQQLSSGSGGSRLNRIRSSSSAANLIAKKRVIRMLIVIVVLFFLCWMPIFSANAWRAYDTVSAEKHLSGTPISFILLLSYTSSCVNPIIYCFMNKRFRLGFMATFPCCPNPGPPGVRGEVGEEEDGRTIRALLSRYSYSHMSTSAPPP
The experiment in a line: Displacement of [125I]CCK from rat CCK1 receptor expressed in CHO cells. The assay is classed as cell-based.

Consider `CN1C(=O)[C@@H](NC(=O)c2cc3ccccc3[nH]2)N=C(c2ccccc2)c2ccccc21`, for which the negative logarithm of the Kb (pKb) was 8.35.
